Test results as given in paper PMC10721329, “Quisinostat is a brain-penetrant radiosensitizer in glioblastoma” (JCI Insight, 2023).
Values joined by “and” are separate entries in the source; they are usually repeats but may differ in a detail not shown here. Equal entries are not always repeated. Where two headings read alike, the source gives them in different places.

Experiments:
[1] = Plasma pharmacokinetics by route of administration (IP, SC, OG); type: in vivo, athymic nude mice; conditions: for AUC(0-t): athymic nude (Foxn1nu), single dose 10 mg/kg, athymic nude mice, read-out: AUClast (plasma)
Description: Because the efficacy of QST in preclinical models of brain tumors remains controversial, and because previous studies employed various drug delivery methods, we sought to understand how different routes of administration affect the bioavailability of QST in mice. Three routes of administration were compared to determine the optimal dosing route to obtain the highest plasma exposure to QST over time. We treated athymic nude mice with a single dose of QST (10 mg/kg) through intraperitoneal (IP), subcutaneous (SC), or oral gavage (OG) delivery and collected blood at 0.5, 1, 2, 4, 6, 8, and 24 hours after dosing from individual mice for PK analysis (Figure 5A). […] Therefore, IP delivery was the optimal route of administration to maximize the bioavailability of QST in athymic nude mice.
QST concentrations in specimens were measured using reverse-phase LC on the AB SCIEX QTRAP6500+ LC-MS/MS system by operating electrospray in the positive ion mode. For liquid chromatographic separation, gradient elution was performed using a Phenomenex Kinetex F5 100 Å column (100 × 2.1 mm, 2.6 μm). The initial composition of the mobile phase was 70% phase A (0.1% formic acid in water) and 30% phase B (0.1% formic acid in 1:1 acetonitrile/methanol) with a 0.35 mL/min flow rate. Gradient elution was achieved as follows: mobile phase (B) was maintained at 30% from 0 to 0.3 minutes, increased to 95% from 0.3 to 0.8 minutes, maintained at 95% from 0.8 to 2.5 minutes, and decreased to 30% from 2.5 to 2.8 minutes. The total run time was 3.5 minutes. The internal standard used in this study was D8-infigratinib. The retention times for QST and D8-infigratinib were 1.6 and 1.8 minutes, respectively. Mass-to-charge ratio transitions were as follows: 395.20 → 144.00 (QST) and 568.08 → 321.00 (D8-infigratinib). LC-MS/MS analysis was performed using an Analyst 1.7 Chromatographic Data System. See Supplemental Methods for detailed PK experiments. […]
Preparation of QST for In Vivo Use
For in vivo preparation, QST was dissolved in 50% polyethylene glycol (PEG) 300, 50% sterile water solution for 10 mg/kg dosing. The suspension was then sonicated for 10 minutes to allow the drug to completely dissolve. Finally, the pH of both the drug and the vehicle solutions was adjusted to 7.4 before intraperitoneal dosing.
Determination of Optimal Administration Route
Foxn1nu nude male mice (The Jackson Laboratory) were used to determine the drug administration route that would result in the best QST bioavailability. Three cohorts of mice were treated with a single dose of 10 mg/kg QST delivered through intraperitoneal, subcutaneous, or oral gavage routes (3 mice per cohort). Following administration of the single dose, approximately 30 µL of blood was drawn from the tip of the tails at the following time points: 0.5, 1, 2, 4, 6, 8, and 24 hours. The collected blood was immediately centrifuged at 3000 rpm for 10 minutes at 4 °C to separate plasma, which was subsequently flash frozen. At the 24 - hour time point, following the last blood sample collection, mice were sacrificed and the whole brains from each mouse were dissected and flash-frozen for subsequent analysis. […]
Calibration Standards and Quality Control Samples
Stock solutions of standard (1 mM QST) and IS (250 µM D8-infigratinib) were prepared in acetonitrile. Working solutions for calibration curve standards and quality controls (QCs) were prepared by dilutions with a 40% methanol mixture aqueous solution. The IS precipitation solution (10 nM) was prepared from the IS stock solutions by dilution with methanol. Calibration standards and batch qualifying QCs were freshly spiked for every batch. For sample analysis in human and mouse matrices, calibration standards were prepared in bulk by spiking appropriate amounts of working solutions into blank human plasma, used as a surrogate matrix due to the instability of QST in mouse plasma. For sample analysis in neural stem cell media and cell […]

orthotopic GB126 tumors = assay: RT-qPCR of neuronal genes in GB126 tumors; type: in vivo, athymic nude mice; conditions: relative to Vehicle mouse 1 = 1, individual mice
Description: Reverse Transcription Quantitative Polymerase Chain Reaction
Total RNA was extracted from orthotopic tumors by using the RNeasy Mini Kit (Qiagen) in accordance with the manufacturer’s instructions. RNA was quantified on a NanoDrop Spectrophotometer ([…]), and 1 μg of total RNA was used for complementary DNA synthesis by using the SuperScript VILO kit (Life Technologies). Quantitative polymerase chain reaction was performed using inventoried TaqMan assays for respective target genes and housekeeping control genes (18S) on the QuantStudio 6 Flex Real -Time PCR System (Life Technologies).
Fold change in gene expression was analyzed using the delta delta Ct method.

Which results are given for `Cn1cc(CNCC2CCN(c3ncc(C(=O)NO)cn3)CC2)c2ccccc21` [QST, quisinostat]?
[QST] in plasma ([1]; IP 10 mg/kg single dose, 0.5 h, individual mice, 10 mg/kg): 347 nmol/L and 1180 nmol/L and 730 nmol/L; [QST] in plasma ([1]; IP 10 mg/kg single dose, 1 h, individual mice, 10 mg/kg): 268 nmol/L and 778 nmol/L and 432 nmol/L; [QST] in plasma ([1]; IP 10 mg/kg single dose, 2 h, individual mice, 10 mg/kg): 70.8 nmol/L and 154 nmol/L and 237 nmol/L; [QST] in plasma ([1]; IP 10 mg/kg single dose, 4 h, individual mice, 10 mg/kg): 22.3 nmol/L and 40.2 nmol/L and 126 nmol/L; [QST] in plasma ([1]; IP 10 mg/kg single dose, 6 h, individual mice, 10 mg/kg): 12.5 nmol/L and 15.1 nmol/L and 47 nmol/L; [QST] in plasma ([1]; IP 10 mg/kg single dose, 8 h, individual mice, 10 mg/kg): 8.68 nmol/L; [QST] in plasma ([1]; IP 10 mg/kg single dose, 24 h, individual mice, 10 mg/kg): 0.963 nmol/L and 0.894 nmol/L; [QST] in plasma ([1]; OG 10 mg/kg single dose, 0.5 h, individual mice): not detectable and 7.12 nmol/L; [QST] in plasma ([1]; OG 10 mg/kg single dose, 1 h, individual mice): not detectable and 4.92 nmol/L; [QST] in plasma ([1]; OG 10 mg/kg single dose, 2 h, individual mice): not detectable and 10.8 nmol/L; [QST] in plasma ([1]; OG 10 mg/kg single dose, 4 h, individual mice): not detectable and 44.7 nmol/L and 3.91 nmol/L; [QST] in plasma ([1]; OG 10 mg/kg single dose, 6 h, individual mice): not detectable and 5.16 nmol/L; [QST] in plasma ([1]; OG 10 mg/kg single dose, 8 h, individual mice): not detectable and 1.29 nmol/L and 4.22 nmol/L; [QST] in plasma ([1]; OG 10 mg/kg single dose, 24 h, individual mice): not detectable and 0.965 nmol/L; [QST] in plasma ([1]; SC 10 mg/kg single dose, 0.5 h, individual mice, 10 mg/kg): 482 nmol/L and 355 nmol/L; [QST] in plasma ([1]; SC 10 mg/kg single dose, 1 h, individual mice, 10 mg/kg): 617 nmol/L and 493 nmol/L; [QST] in plasma ([1]; SC 10 mg/kg single dose, 2 h, individual mice, 10 mg/kg): 169 nmol/L and 281 nmol/L and 430 nmol/L; [QST] in plasma ([1]; SC 10 mg/kg single dose, 4 h, individual mice, 10 mg/kg): 41.6 nmol/L and 61.2 nmol/L and 96.2 nmol/L; [QST] in plasma ([1]; SC 10 mg/kg single dose, 6 h, individual mice, 10 mg/kg): 14.4 nmol/L and 21.7 nmol/L and 34.8 nmol/L; [QST] in plasma ([1]; SC 10 mg/kg single dose, 8 h, individual mice, 10 mg/kg): 7.48 nmol/L and 13.4 nmol/L and 15.5 nmol/L; [QST] in plasma ([1]; SC 10 mg/kg single dose, 24 h, individual mice, 10 mg/kg): 0.909 nmol/L and 0.187 nmol/L and 0.208 nmol/L; concentration at 8 h ([1]; male, Foxn1nu athymic nude, mouse, plasma, ip, 10 mg/kg, IP 10 mg/kg single dose, 8 h, individual mice, read-out: [QST] in plasma): 15.9 nM; concentration at 24 h ([1]; male, Foxn1nu athymic nude, mouse, plasma, ip, 10 mg/kg, IP 10 mg/kg single dose, 24 h, individual mice, read-out: [QST] in plasma): 1.2 nM; concentration at 0.5 h ([1]; male, Foxn1nu athymic nude, mouse, plasma, oral, 10 mg/kg, OG 10 mg/kg single dose, 0.5 h, individual mice, read-out: [QST] in plasma): 8.17 nM; concentration at 1 h ([1]; male, Foxn1nu athymic nude, mouse, plasma, oral, 10 mg/kg, OG 10 mg/kg single dose, 1 h, individual mice, read-out: [QST] in plasma): 7.64 nM; concentration at 2 h ([1]; male, Foxn1nu athymic nude, mouse, plasma, oral, 10 mg/kg, OG 10 mg/kg single dose, 2 h, individual mice, read-out: [QST] in plasma): 8.86 nM; concentration at 6 h ([1]; male, Foxn1nu athymic nude, mouse, plasma, oral, 10 mg/kg, OG 10 mg/kg single dose, 6 h, individual mice, read-out: [QST] in plasma): 4.91 nM; concentration at 24 h ([1]; male, Foxn1nu athymic nude, mouse, plasma, oral, 10 mg/kg, OG 10 mg/kg single dose, 24 h, individual mice, read-out: [QST] in plasma): 0.81 nM; concentration at 0.5 h ([1]; male, Foxn1nu athymic nude, mouse, plasma, sc, 10 mg/kg, SC 10 mg/kg single dose, 0.5 h, individual mice, read-out: [QST] in plasma): 300 nM; concentration at 1 h ([1]; male, Foxn1nu athymic nude, mouse, plasma, sc, 10 mg/kg, SC 10 mg/kg single dose, 1 h, individual mice, read-out: [QST] in plasma): 418 nM; concentration at 8 h ([1]; male, Foxn1nu athymic nude, mouse, plasma, IP 10 mg/kg single dose, 8 h, individual mice, read-out: [QST] in plasma): 25.7 nM; AUC(0-t) ([1]; male, mouse, plasma, oral, OG): 0.106 µM·h; AUC(0-t) ([1]; male, mouse, plasma, IP): 1.2 µM·h; AUC(0-t) ([1]; male, mouse, plasma, SC): 1.19 µM·h; qPCR CECR2 expression (orthotopic GB126 tumors; Combo (QST + IR)): 90.297 and 227.304 and 107.431; qPCR GABRA2 expression (orthotopic GB126 tumors; Combo (QST + IR)): 62.6009 and 92.8255 and 56.6887; qPCR SCN3A expression (orthotopic GB126 tumors; Combo (QST + IR)): 28.0147 and 63.295 and 75.3722; qPCR BDNF expression (orthotopic GB126 tumors; QST + IR): 14.0587 and 9.35 and 2.8459; qPCR KCNQ3 expression (orthotopic GB126 tumors; QST + IR): 9.67 and 10.8552 and 27.8625; qPCR NGFR expression (orthotopic GB126 tumors; QST + IR): 3.525 and 9.249 and 10.5627; qPCR BDNF expression (orthotopic GB126 tumors; QST): 5.022 and 6.518 and 12.9199; qPCR CECR2 expression (orthotopic GB126 tumors; QST): 38.4564 and 79.55 and 112.554; qPCR GABRA2 expression (orthotopic GB126 tumors; QST): 1.543 and 82.6227 and 31.8541; qPCR KCNQ3 expression (orthotopic GB126 tumors; QST): 1.23 and 4.886 and 2.677; qPCR NGFR expression (orthotopic GB126 tumors; QST): 13.22 and 5.955 and 12.7613; qPCR SCN3A expression (orthotopic GB126 tumors; QST): 6.113 and 76.4987 and 9.293
